How the values were obtained:
[1] = plasma enterolactone after 7-hydroxymatairesinol capsules in human subjects; format: in vivo; conditions: healthy male volunteers, capsules 315 mg/day (3 x 105 mg), 29 days, FIG. 2
Description: The data for experimental days 1 and 29 is shown. On the x-axis, the time (hrs) after the first 105 mg dose is shown. The arrows denote the administration of the three 105 mg HMRlignan™ (hydroxymatairesinol) doses during the test days 1 and 29. N=6.
In brief, healthy male volunteers ingested capsule preparation of 7-hydroxymatairesinol, at total daily dose of 315 mg, divided in three 105 mg portion for morning, afternoon and evening dose. The subjects ingested the product continuously for 29 days. […] The levels were measured with a high-performance liquid chromatography coupled with tandem mass spectrometer system (Applied Biosystems Inc.).

[2] = disclosed in WO 00/59946; cited from earlier work

circulating enterolactone concentration [1]: sustained increase
Structure (SMILES): COc1cc(C[C@H]2C(=O)OC[C@@H]2[C@H](O)c2ccc(O)c(OC)c2)ccc1O [7-hydroxymatairesinol]
conversion to enterolactone in vivo [2]: efficiently converted to enterolactone

— patent US20080057140A1, “Use of a Lignan for the Manufacture of a Composition for Preventing or Alleviating of Symptoms Relating to Estrogen Deficiency” (priority 2005, published 2008)
